From US20230117034A1, “PYRAZOLOTRIAZINES” (Bayer Aktiengesellschaft, priority 2019, published 2023)
pIC50: −log10 of the molar value. Like-named read-outs stand apart in the source and are kept apart here.

Columns and labels:
CDK2/CycE = molecular target: T1, CDK2/CycE (Homo sapiens, UniProt P24941); assay: CDK2/CycE kinase assay (TR-FRET, 2 mM ATP); format: biochemical; conditions: 2 mM ATP (high ATP); median; read-out: CDK2/CyclinE, 2 mM ATP (high ATP), IC50 (median)
T1 construct: purchased ProQinase GmbH (Freiburg, Germany); host or cells: insect cells (Sf9)
Procedure, shortened: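 GST-tagged human CDK2 and CycE from Sf9 cells, about 10 ng/ml, pre-incubated 15 min at 22 °C with compound in Tris/HCl pH 8.0 buffer. Reaction with 2 mM ATP and 0.75 µM biotinylated peptide for 25 min at 22 °C. Phospho-RB antibody TR-FRET (665/620 nm ratio) read after 1 h; data normalised to no-inhibitor and no-enzyme controls.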

[1] = test system: MDA-MB-231, human breast cancer cells; assay: Proliferation assay MDA-MB-231 (crystal violet, 4 days); format: cell-based; conditions: MDA-MB-231 cells, median, read-out: Prolif-MDA MB-231, IC50-[mol/l] (median)
Procedure, shortened: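 Cells seeded at 4,000/well in medium with 10% FCS; after 24 h, compounds added at 0.01-10 µmol/L (0.1% DMSO) for 4 days. Glutaraldehyde-fixed, crystal violet-stained, absorbance at 595 nm normalized to zero-point plate (0%) and untreated cells (100%); IC50 by 4-parameter fit.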

[2] = molecular target: T2, CYCLIN K (nuclear staining in CAL-120 cells) (Homo sapiens, UniProt O75909); assay: CYCLIN K nuclear protein level: immunofluorescence high content analysis (CAL-120); format: cell-based; conditions: 24 h, 50% reduction of nuclear CCNK staining intensity, median, read-out: CYCLIN K degradation IF, DC50-[mol/l] (median)
T2 construct: endogenous in cells; host or cells: CAL-120 human breast cancer cells (DSMZ ACC 459)
T2 sequence (O75909 whole entry): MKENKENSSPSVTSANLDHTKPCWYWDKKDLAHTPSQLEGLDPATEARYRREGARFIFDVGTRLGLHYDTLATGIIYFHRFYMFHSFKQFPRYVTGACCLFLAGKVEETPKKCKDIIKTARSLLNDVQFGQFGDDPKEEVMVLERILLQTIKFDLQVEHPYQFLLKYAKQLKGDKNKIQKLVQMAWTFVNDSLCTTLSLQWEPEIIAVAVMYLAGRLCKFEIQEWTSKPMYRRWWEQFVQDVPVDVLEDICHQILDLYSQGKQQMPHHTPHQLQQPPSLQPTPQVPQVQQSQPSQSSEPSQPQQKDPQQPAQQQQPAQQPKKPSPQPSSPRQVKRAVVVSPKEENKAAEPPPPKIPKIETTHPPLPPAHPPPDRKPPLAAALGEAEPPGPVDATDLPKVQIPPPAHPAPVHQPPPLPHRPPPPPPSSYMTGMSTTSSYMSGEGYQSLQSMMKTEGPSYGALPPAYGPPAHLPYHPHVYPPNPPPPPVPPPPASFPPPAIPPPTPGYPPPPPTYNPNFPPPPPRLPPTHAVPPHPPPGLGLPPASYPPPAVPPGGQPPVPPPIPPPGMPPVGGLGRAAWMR
T2 sequence (Q9NYV4 whole entry partner): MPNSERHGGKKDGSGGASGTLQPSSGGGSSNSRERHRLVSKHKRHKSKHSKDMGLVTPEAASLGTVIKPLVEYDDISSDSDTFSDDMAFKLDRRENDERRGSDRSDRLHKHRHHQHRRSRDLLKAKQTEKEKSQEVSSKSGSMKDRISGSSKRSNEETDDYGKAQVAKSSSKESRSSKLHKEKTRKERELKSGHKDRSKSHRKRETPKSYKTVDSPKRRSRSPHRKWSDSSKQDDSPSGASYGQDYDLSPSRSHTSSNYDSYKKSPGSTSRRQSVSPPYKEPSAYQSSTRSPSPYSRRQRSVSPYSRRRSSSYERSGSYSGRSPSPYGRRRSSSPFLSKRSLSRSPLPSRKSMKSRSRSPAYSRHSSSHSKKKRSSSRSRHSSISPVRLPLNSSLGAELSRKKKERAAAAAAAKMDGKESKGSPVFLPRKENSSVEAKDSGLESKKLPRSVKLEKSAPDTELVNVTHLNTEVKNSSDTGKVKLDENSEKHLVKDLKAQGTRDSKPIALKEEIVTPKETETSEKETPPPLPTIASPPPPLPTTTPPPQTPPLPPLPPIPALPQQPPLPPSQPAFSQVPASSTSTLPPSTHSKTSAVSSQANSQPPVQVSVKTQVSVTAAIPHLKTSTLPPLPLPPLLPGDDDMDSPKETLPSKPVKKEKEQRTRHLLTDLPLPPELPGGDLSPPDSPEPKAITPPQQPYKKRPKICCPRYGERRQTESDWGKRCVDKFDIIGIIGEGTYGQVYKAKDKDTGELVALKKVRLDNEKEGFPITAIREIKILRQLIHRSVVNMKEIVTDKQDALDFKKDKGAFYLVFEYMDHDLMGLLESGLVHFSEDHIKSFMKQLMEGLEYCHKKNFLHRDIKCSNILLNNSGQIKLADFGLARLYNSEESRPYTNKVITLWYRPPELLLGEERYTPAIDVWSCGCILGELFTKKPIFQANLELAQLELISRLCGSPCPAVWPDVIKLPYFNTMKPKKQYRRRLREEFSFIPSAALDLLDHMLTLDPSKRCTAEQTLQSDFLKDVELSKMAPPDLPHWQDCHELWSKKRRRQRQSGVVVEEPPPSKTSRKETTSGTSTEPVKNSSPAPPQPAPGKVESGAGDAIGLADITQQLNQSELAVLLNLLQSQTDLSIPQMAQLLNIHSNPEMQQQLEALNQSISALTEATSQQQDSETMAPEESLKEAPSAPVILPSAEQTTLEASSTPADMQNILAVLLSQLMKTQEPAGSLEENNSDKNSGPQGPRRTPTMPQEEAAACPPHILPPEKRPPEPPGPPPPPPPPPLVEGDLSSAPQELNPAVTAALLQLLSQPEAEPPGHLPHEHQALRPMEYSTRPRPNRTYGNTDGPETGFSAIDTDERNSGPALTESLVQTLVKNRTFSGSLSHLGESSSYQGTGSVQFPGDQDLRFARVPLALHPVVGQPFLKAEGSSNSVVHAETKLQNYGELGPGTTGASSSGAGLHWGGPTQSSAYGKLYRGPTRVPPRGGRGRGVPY
Procedure, shortened: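 CAL-120 breast cancer cells treated in dose-response for 24 h at 37 °C, PFA-fixed and immunostained for cyclin K with Hoechst counterstain. Confocal imaging quantified nuclear intensity; DC50 is the concentration giving 50% reduction of nuclear CCNK staining, normalized to DMSO and control.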

Row | pIC50 (CDK2/CycE) | pIC50 [1] | DC50 [2] [nM] | pIC50 ([1]; Homo sapiens, MDA-MB-231, 96 h) | SMILES
1 | 5.14 | 7.00 | 1.23 | – | CC1CN(C)CCN1c1nc(NCc2nc3ccccc3[nH]2)n2ncc(Br)c2n1 (single isomer, unassigned; enantiomer 2) [Example 261, N-(1H-benzimidazol-2-ylmethyl)-8-bromo-2-[(2R or S)-2,4-dimethylpiperazin-1-yl]pyrazolo[1,5-a][1,3,5]triazin-4-amine (Enantiomer 2)]
2 | 5.76 | – | 1.35 | 7.51 | Cc1ccnc2[nH]c(CNc3nc(N4CCOCC4)nc4c(Br)cnn34)nc12 [Example 20, 8-bromo-N-[(7-methyl-3H-imidazo[4,5-b]pyridin-2-yl)methyl]-2-(morpholin-4-yl)pyrazolo[1,5-a][1,3,5]triazin-4-amine]
3 | 5.85 | – | 1.02 | 7.47 | Brc1cnn2c(NCc3ncc(-c4ccccc4)[nH]3)nc(N3CCOCC3)nc12 [Example 23, 8-bromo-2-(morpholin-4-yl)-N-[(5-phenyl-1H-imidazol-2-yl)methyl]pyrazolo[1,5-a][1,3,5]triazin-4-amine]
4 | 5.63 | – | 1.67 | 7.27 | Brc1cnn2c(NCc3nnc(-c4ccccc4)[nH]3)nc(N3CCOCC3)nc12 [Example 24, 8-bromo-2-(morpholin-4-yl)-N-[(5-phenyl-4H-1,2,4-triazol-3-yl)methyl]pyrazolo[1,5-a][1,3,5]triazin-4-amine]
5 | < 4.70 | – | 15.6 | 6.30 | c1ccc2[nH]c(CNc3nc(N4CCOCC4)nc4c(C5CCCC5)cnn34)nc2c1 [Example 244, N-[(1H-benzimidazol-2-yl)methyl]-8-cyclopentyl-2-(morpholin-4-yl)pyrazolo[1,5-a][1,3,5]triazin-4-amine]
6 | 5.30 | – | 0.627 | 7.84 | N[C@H]1CCN(c2nc(NCc3nc4ccccc4[nH]3)n3ncc(Br)c3n2)C1 [Example 245, 2-[(3S)-3-aminopyrrolidin-1-yl]-N-[(1H-benzimidazol-2-yl)methyl]-8-bromopyrazolo[1,5-a][1,3,5]triazin-4-amine]
7 | < 4.70 | – | 1.02 | 6.92 | CN1CCN(c2nc(NCc3nc4ccccc4[nH]3)n3ncc(C4CC4)c3n2)CC1 [Example 246, N-[(1H-benzimidazol-2-yl)methyl]-8-cyclopropyl-2-(4-methylpiperazin-1-yl)pyrazolo[1,5-a][1,3,5]triazin-4-amine]
8 | < 4.70 | – | 0.933 | 7.29 | c1ccc2[nH]c(CNc3nc(N4CCNCC4)nc4c(C5CC5)cnn34)nc2c1 [Example 247, N-[(1H-benzimidazol-2-yl)methyl]-8-cyclopropyl-2-(piperazin-1-yl)pyrazolo[1,5-a][1,3,5]triazin-4-amine]
9 | < 4.70 | – | 0.648 | 7.92 | C[C@@H]1CN(c2nc(NCc3nc4ccccc4[nH]3)n3ncc(C4CC4)c3n2)C[C@H](C)N1 [Example 248, N-[(1H-benzimidazol-2-yl)methyl]-8-cyclopropyl-2-[(3R,5S)-3,5-dimethylpiperazin-1-yl]pyrazolo[1,5-a][1,3,5]triazin-4-amine]
10 | 4.89 | – | 0.407 | 7.46 | N[C@@H]1CCN(c2nc(NCc3nc4ccccc4[nH]3)n3ncc(Br)c3n2)C1 [Example 250, 2-[(3R)-3-aminopyrrolidin-1-yl]-N-[(1H-benzimidazol-2-yl)methyl]-8-bromopyrazolo[1,5-a][1,3,5]triazin-4-amine]
11 | 5.59 | – | 0.11 | 8.56 | N[C@@H]1CN(c2nc(NCc3nc4ccccc4[nH]3)n3ncc(Br)c3n2)CC12CC2 [Example 251, 2-[(7S)-7-amino-5-azaspiro[2.4]heptan-5-yl]-N-[(1H-benzimidazol-2-yl)methyl]-8-bromopyrazolo[1,5-a][1,3,5]triazin-4-amine]
